How the values were obtained:
[1] = target: human A2a adenosine receptor (Homo sapiens (Human), UniProt P29274); test: A2a receptor affinity radioligand binding assay ([3H] SCH58261); conditions: membranes from HEK293 or CHO cells expressing human A2a receptor
Method in brief: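 IC50 values come from 4-parameter logistic fits of filter-bound radioactivity, normalized to total (1% DMSO) and nonspecific (1 μM ZM241385) binding. Recombinant human A2a membranes (HEK293 or CHO) were exposed to compound for 15–30 min, then to [3H]SCH58261 (4 nM working dilution) for 60 min at room temperature in Tris pH 7.4/MgCl2/Tween20 buffer.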

[2] = target: human A2b adenosine receptor (Homo sapiens (Human), UniProt P29275); test: A2b radioligand filtration binding assay; conditions: for IC50: membranes from HEK293 cells expressing human A2b receptor
Method in brief: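 Displacement of a tritiated A2b antagonist (working solution 14 nM) from human A2b receptor membranes of recombinant HEK293 cells, in Mg/Ca-free PBS pH 7.4, 60 min at room temperature after 15 to 30 min compound preincubation. Filtered, counted; normalized to total and 20 μM NECA non-specific binding; IC50 from logistic fit.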

human A2a adenosine receptor, sequence (P29274 whole entry): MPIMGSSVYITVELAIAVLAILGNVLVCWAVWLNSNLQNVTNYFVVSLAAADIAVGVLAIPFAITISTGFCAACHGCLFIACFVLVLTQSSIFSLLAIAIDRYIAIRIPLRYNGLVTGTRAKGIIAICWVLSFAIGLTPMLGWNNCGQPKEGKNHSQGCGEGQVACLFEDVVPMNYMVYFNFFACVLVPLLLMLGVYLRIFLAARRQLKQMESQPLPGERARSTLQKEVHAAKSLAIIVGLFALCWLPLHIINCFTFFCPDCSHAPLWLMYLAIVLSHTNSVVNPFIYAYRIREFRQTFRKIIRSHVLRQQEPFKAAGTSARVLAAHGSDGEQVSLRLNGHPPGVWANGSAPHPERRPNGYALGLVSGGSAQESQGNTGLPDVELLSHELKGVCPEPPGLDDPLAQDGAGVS
human A2b adenosine receptor, sequence (P29275 whole entry): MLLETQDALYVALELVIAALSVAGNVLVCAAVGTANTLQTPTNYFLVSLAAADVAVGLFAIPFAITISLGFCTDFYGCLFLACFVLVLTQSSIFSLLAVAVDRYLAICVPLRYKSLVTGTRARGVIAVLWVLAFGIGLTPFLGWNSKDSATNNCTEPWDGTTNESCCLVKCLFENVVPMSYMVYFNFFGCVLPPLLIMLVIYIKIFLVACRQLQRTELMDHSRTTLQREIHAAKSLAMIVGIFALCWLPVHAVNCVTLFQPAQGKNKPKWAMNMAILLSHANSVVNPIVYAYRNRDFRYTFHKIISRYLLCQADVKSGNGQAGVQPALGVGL

| IC50 [1] [µM] | IC50 [2] [µM] | A2B binding % Inh. @ 10000 nM [2] [% Inh.] | SMILES |
| --- | --- | --- | --- |
| 0.0106 | 0.5 | – | COc1cc2nc(N)n3nc(C4CC(F)CN(c5cnn(CC(C)(C)O)c5)C4)nc3c2cc1F (single isomer, unassigned) [Example 55, 1-(4-((3R,5S or 3S,5R)-3-(5-amino-9-fluoro-8-methoxy-[1,2,4]triazolo[1,5-c]quinazolin-2-yl)-5-fluoropiperidin-1-yl)-1H-pyrazol-1-yl)-2-methylpropan-2-ol] |
| 0.0004 | 0.134 | – | COc1cc(F)cc2c1nc(N)n1nc([C@@H]3CCCN(c4cn(C(C)C(C)(C)O)nc4C)C3)nc21 (single isomer, unassigned) [Example 87, (R or S)-3-(4-((R)-3-(5-amino-9-fluoro-7-methoxy-[1,2,4]triazolo[1,5-c]quinazolin-2-yl)piperidin-1-yl)-3-methyl-1H-pyrazol-1-yl)-2-methylbutan-2-ol] |
| 0.0026 | 2.16 | – | COc1cc2nc(N)n3nc(C4CCC(C)N(c5cnn(C(C)(C)CO)c5)C4)nc3c2cc1F (single isomer, unassigned) [Example 126, rac-2-(4-((2R or 2S,5R or 5S)-5-(5-amino-9-fluoro-8-methoxy-[1,2,4]triazolo[1,5-c]quinazolin-2-yl)-2-methylpiperidin-1-yl)-1H-pyrazol-1-yl)-2-methylpropan-1-ol] |
| 0.0569 | – | 54 | COc1cc(F)cc2c1nc(N)n1nc([C@H]3C[C@H](F)CN(c4cnn(CC(C)(C)O)c4)C3)nc21 (single isomer, unassigned) [Example 75, 1-(4-((3S,5S or 3R,5R)-3-(5-amino-9-fluoro-7-methoxy-[1,2,4]triazolo[1,5-c]quinazolin-2-yl)-5-fluoropiperidin-1-yl)-1H-pyrazol-1-yl)-2-methylpropan-2-ol] |
| 0.0017 | 0.0948 | – | COc1cc(F)cc2c1nc(N)n1nc([C@@H]3CCCN(c4cnn(CC5(O)CCC5)c4)C3)nc21 [Example 31, (R)-1-((4-(3-(5-amino-9-fluoro-7-methoxy-[1,2,4]triazolo [1,5-c]quinazolin-2-yl)piperidin-l-yl)-1H-pyrazol-1-yl)methyl)cyclobutan-1-ol] |
| 0.181 | – | 31 | COc1cc(F)cc2c1nc(N)n1nc([C@@H]3C[C@H](F)CN(c4cnn(CC(C)(C)O)c4)C3)nc21 (single isomer, unassigned) [Example 68, 1-(4-((3R,5S or 3S,5R)-3-(5-amino-9-fluoro-7-methoxy-[1,2,4]triazolo[1,5-c]quinazolin-2-yl)-5-fluoropiperidin-1-yl)-1H-pyrazol-1-yl)-2-methylpropan-2-ol] |
| 0.0003 | 0.0017 | – | COc1cc(F)cc2c1nc(N)n1nc(C3CCC(C)N(c4cnn(C(C)(C)CO)c4)C3)nc21 (single isomer, unassigned) [Example 124, 2-(4-((2R or 2S,5S or 5R)-5-(5-amino-9-fluoro-7-methoxy-[1,2,4]triazolo[1,5-c]quinazolin-2-yl)-2-methylpiperidin-1-yl)-1H-pyrazol-1-yl)-2-methylpropan-1-ol] |
| 0.436 | 5.12 | – | COc1cc(F)cc2c1nc(N)n1nc(C3CC(F)CN(c4cnn(CC5(O)CCC5)c4)C3)nc21 (single isomer, unassigned) [Example 73, 1-(4-((3S,5R or 3R,5S)-3-(5-amino-9-fluoro-7-methoxy-[1,2,4]triazolo[1,5-c]quinazolin-2-yl)-5-fluoropiperidin-1-yl)-1H-pyrazol-1-yl)methyl)cyclobutan-1-ol] |
| 0.021 | 2.08 | – | COc1cc2nc(N)n3nc([C@H]4CC[C@@H](C)N(c5cnn(CC6(O)CCC6)c5C)C4)nc3c2cc1F (single isomer, unassigned) [Example 51, 1-((4-((2R,5S or 2S,5R)-5-(5-amino-9-fluoro-8-methoxy-[1,2,4]triazolo[1,5-c]quinazolin-2-yl)-2-methylpiperidin-1-yl)-5-methyl-1H-pyrazol-1-yl)methyl)cyclobutan-1-ol] |
| 0.0035 | 0.0634 | – | COc1cc2nc(N)n3nc([C@@H]4CCCN(c5cnn(CC6(O)CCC6)c5)C4)nc3c2cc1F [Example 10, (R)-1-((4-(3-(5-amino-9-fluoro-8-methoxy-[1,2,4]triazolo [1,5-c]quinazolin-2-yl)piperidin-1-yl)-1H-pyrazol-1-yl)methyl)cyclobutan-1-ol] |
| 0.0327 | 0.39 | – | Cn1cc(N2CCCC(c3nc4c5cc(F)c(F)cc5nc(N)n4n3)C2)cn1 (single isomer, unassigned) [Example 101, (R or S)-8,9-difluoro-2-(1-(1-methyl-1H-pyrazol-4-yl)piperidin-3-yl)-[1,2,4]triazolo[1,5-c]quinazolin-5-amine] |
| 0.0506 | 2.91 | – | COc1cc(F)cc2c1nc(N)n1nc([C@@H]3CC[C@@H](C)N(c4cn(CC(C)(C)O)nc4C)C3)nc21 (single isomer, unassigned) [Example 114, 1-(4-((2R or 2S,5R or 5S)-5-(5-amino-9-fluoro-7-methoxy-[1,2,4]triazolo[1,5-c]quinazolin-2-yl)-2-methylpiperidin-1-yl)-3-methyl-1H-pyrazol-1-yl)-2-methylpropan-2-ol] |
| 0.0028 | 0.0763 | – | COc1cc(F)cc2c1nc(N)n1nc([C@@H]3CCCN(c4cnn(CC(C)(C)O)c4)C3)nc21 [Example 28, (R)-1-(4-(3-(5-amino-9-fluoro-7-methoxy-[1,2,4]triazolo [1,5-c]quinazolin-2-yl)piperidin-1-yl)-1H-pyrazol-1-yl)-2-methylpropan-2-ol] |
| 0.0003 | 0.165 | – | COc1cc(F)cc2c1nc(N)n1nc([C@@H]3CCCN(c4cn(C(C)C(C)(C)O)nc4C)C3)nc21 (single isomer, unassigned) [Example 86, (S or R)-3-(4-((R)-3-(5-amino-9-fluoro-7-methoxy-[1,2,4]triazolo[1,5-c]quinazolin-2-yl)piperidin-1-yl)-3-methyl-1H-pyrazol-1-yl)-2-methylbutan-2-ol] |
| 0.0002 | 0.013 | – | COc1cc(F)cc2c1nc(N)n1nc([C@H]3CC[C@@H](C)N(c4cn(CC(C)(C)O)nc4C)C3)nc21 (single isomer, unassigned) [Example 117, 1-(4-((2R or 2S,5S or 5R)-5-(5-amino-9-fluoro-7-methoxy-[1,2,4]triazolo[1,5-c]quinazolin-2-yl)-2-methylpiperidin-1-yl)-3-methyl-1H-pyrazol-1-yl)-2-methylpropan-2-ol] |
| 0.0314 | 5.86 | – | COc1cc2nc(N)n3nc(C4CCCCN(c5cnn(CC(C)(C)O)c5)C4)nc3c2cc1F (single isomer, unassigned) [Example 60, (R or S)-1-(4-(3-(5-amino-9-fluoro-8-methoxy-[1,2,4]triazolo[1,5-c]quinazolin-2-yl)azepan-1-yl)-1H-pyrazol-1-yl)-2-methylpropan-2-ol] |

| SMILES | IC50 [1] [µM] | IC50 [2] [µM] | A2B binding % Inh. @ 10000 nM [2] [% Inh.] |
| --- | --- | --- | --- |
| COc1cc2nc(N)n3nc([C@@H]4C[C@@H](C)CN(c5cnn(CC(C)(C)O)c5)C4)nc3c2cc1F (single isomer, unassigned) [Example 92, rac-1-(4-((3R,5R or 3S,5S)-3-(5-amino-9-fluoro-8-methoxy-[1,2,4]triazolo[1,5-c]quinazolin-2-yl)-5-methylpiperidin-1-yl)-1H-pyrazol-1-yl)-2-methylpropan-2-ol] | 0.0109 | 0.602 | – |

Source: patent US11312719B2, “9-substituted amino triazolo quinazoline derivatives as adenosine receptor antagonists, pharmaceutical compositions and their use” (Merck Sharp & Dohme Corp., priority 2018, dated 2022)
